For experiment [1], the system named is rat model of inflammatory bowel disease (DNBS instilled intracolonically). Kind of experiment: Evaluation of retinoids which bind to RAR and RXR using DNBS-induced rat model of inflammatory bowel disease (Example 2). The class given is in vivo, Wistar rats. Particulars: for Bowel Inflammation Score [average]: 24 h and 2 h before DNBS and once daily for 5 days, macroscopic score 0-10, N = 5; for Presence or Absence of Adhesion (in five rats per group): number of animals with adhesion. On the procedure:
Male or female Wistar rats weighing 200±5 g were used to create an animal model of inflammatory bowel disease. After the animals were fasted for 24 hours, DNBS (2,4-Dinotrobenzenesulfonic Acid, 30 mg in 0.5 ml 30% ethanol) was instilled intracolonically through the anus. As the medicaments of the present invention, 4-[2,3-(2,5-dimethyl-2,5-hexano)dibenzo[b,f][1,4]thiazepin-11-yl] benzoic acid (HX630) at 3 mg/kg, 4-(5H-7,8,9,10-tetrahydro-5,7,7,10,10-pentamethylbenzo[e]naphtho[2,3-b][1,4]diazepin-13-yl)benzoic acid (LE135) at 5 mg/kg, or a combination of 0.1 mg/kg of Am80 and 3 mg/kg of HX630 were used, and as a comparative example (positive control drug), 300mg/kg of salazosulfapyridine (SASP) as a commercially available drug for ulcerative colitis was used, and each drug was administered 24 hours before and 2 hours before the DNBS infusion, and once daily for 5 days after 24 hours from the infusion. Each drug was administered orally as a suspension in 0.5% carboxymethylcellulose. For the control group, the solvent was administered orally according to the same schedule. The animals were subjected to anatomic examination 24 hours after the final administration, and a degree of bowel inflammation was observed. For each of the Tamibarotene-administered group, SASP-administered group, the normal group, and the control group, five rats were used.
(§1) The results are indicated as the scores of bowel inflammation (average), weight of the colon per unit body weight (100 g body weight) (average±standard error), and the number of animals in each group that gave adhesion. The scoring of bowel inflammation were conducted by visual observation according to the method of judgment described in the reference (Am. J. Physiol., 258: G527-34, 1990). • Score of Bowel Ulceration and Inflammation (Macroscopic) • Score: observation • 0: Normal; • 1: Localized hyperemia, no ulcers; • 2: Ulceration without hyperemia or colonic wall thickening; • 3: Inflammation and ulceration at one site; • 4: Ulcers and Inflammations at two or more sites; • 5: A major damaged site extending in 1 cm or longer along the direction of the colon length; and • 6-10: When a major damaged site extends in 2 cm or longer along the direction of the colon length, a score is increased by one for each additional 1 cm over 2 cm.

For experiment [2], the system named is model rat of inflammatory bowel disease (DNBS instilled intracolonically). The experiment can be described thus: Evaluation of Am80 using DNBS-induced model rat of inflammatory bowel disease (Example 1). The class given is in vivo, Wistar rats. The note with it: for Presence or Absence of Adhesion (in five rats per group): number of animals with adhesion. The protocol: Male or female Wistar rats weighing 200±5 g were used to create an animal model of inflammatory bowel disease. After the animals were fasted for 24 hours, DNBS (2,4-Dinotrobenzenesulfonic Acid, 30 mg in 0.5 ml 30% ethanol) was instilled intracolonically through the anus. Each of 4-[(5,6,7,8-tetrahydro-5,5,8,8-tetramethyl-2-naphthalenyl)carbamoyl]benzoic acid (Am80, generic name: Tamibarotene) as the medicament of the present invention so as to be a dose at 0.3 mg/kg, and salazosulfapyridine (SASP), a commercially available drug for ulcerative colitis, as a comparative example (positive control drug) so as to be a dose at 300 mg/kg was administered 24 hours before and 2 hours before the DNBS infusion, and once daily for 5 days after 24 hours from the infusion. Tamibarotene or SASP was each administered orally as a suspension in 0.5% carboxymethylcellulose. For the control group, the solvent was administered orally according to the same schedule as that for SASP. The animals were subjected to anatomic examination 24 hours after the final administration, and a degree of bowel inflammation was observed. For each of the Tamibarotene-administered group, SASP-administered group, the normal group, and the control group, five rats were used.
as §1, with “of the bowel per unit” for “of the colon per unit”

“And” between values parts separate entries of the source, which are not always exact repeats. Identical values can stand only once.

In the case of `CC1(C)CCC(C)(C)c2cc3c(cc21)Sc1ccccc1N=C3c1ccc(C(=O)O)cc1` [HX630, 4-[2,3-(2,5-dimethyl-2,5-hexano)dibenzo[b,f][1,4]thiazepin-11-yl] benzoic acid], in experiment [1] (HX630 3 mg/kg oral), the “Bowel Inflammation Score [average]” value is 3.4 and the “Presence or Absence of Adhesion (in five rats per group)” value is 1/5.
Consider `CN1c2cc3c(cc2N=C(c2ccc(C(=O)O)cc2)c2ccccc21)C(C)(C)CCC3(C)C` [LE135, 4-(5H-7,8,9,10-tetrahydro-5,7,7,10,10-pentamethylbenzo[e]naphtho[2,3-b][1,4]diazepin-13-yl)benzoic acid], for which, in experiment [1] (LE135 5 mg/kg oral), the “Bowel Inflammation Score [average]” value was 2.4 and the “Presence or Absence of Adhesion (in five rats per group)” value is 0/5.
Take `O=C(O)c1cc(/N=N/c2ccc(S(=O)(=O)Nc3ccccn3)cc2)ccc1O` [SASP, salazosulfapyridine]: in experiment [2] (SASP 300 mg/kg oral, 24 h and 2 h before DNBS and once daily for 5 days, macroscopic score 0-10, N = 5), the “Bowel Inflammation Score [average]” value worked out at 2. In addition, in experiment [2] (SASP 300 mg/kg oral, average ± standard error, N = 5), the “Colon weight/100 g body weight [average]” value is recorded as 0.682 ± 0.023. In addition, the “Presence or Absence of Adhesion (in five rats per group)” value in experiment [2] (SASP 300 mg/kg oral) was 2/5.
On to `CC1(C)CCC(C)(C)c2cc(NC(=O)c3ccc(C(=O)O)cc3)ccc21` [Tamibarotene, 4-[(5,6,7,8-tetrahydro-5,5,8,8-tetramethyl-2-naphthalenyl)carbamoyl]benzoic acid], for which the “Presence or Absence of Adhesion (in five rats per group)” value in experiment [2] (Tamibarotene 0.3 mg/kg oral) is “significantly suppressed and 0/5”.
